How the values were obtained:
[1] = target: T1, TRPC5 channel (Homo sapiens (Human), UniProt Q9UL62); test: High throughput screening assay: intracellular Ca2+ rise, Fluo4 cell-based fluorescence; conditions: HEK293/TREx cells inducibly expressing TRPC5, high-Ca2+ Ringer, 14 mM Ca2+ final, triplicate, 0.027-20 μM
Source text: The assay depended on detection of the rise in intracellular Ca2+ concentration ([Ca2+]i) following channel activation in cells inducibly expressing the TRPC5 channel. Ca2+ rise was quantified with the use of fluorescent Ca2+ indicators that were loaded into cells and thereafter indicated the [Ca2+]i Ca2+ influx followed activation of the TRPC5 channel. Compounds inhibiting the [Ca2+]i rise were considered hits for further investigation.
The commercially available HEK293/TREx line (Invitrogen) was stably transfected with a TRPC5 construct and screened by conventional calcium imaging to find clones with TRPC5 expression following stimulation with 1 μg/ml tetracycline. These cells were maintained in the growth medium recommended by the manufacturer supplemented with 100 μg/ml hygromycin to promote retention of the TRPC5 construct. After growing to near confluency, cells were plated at a density of ˜35,000 cells/well in 384 well CellBind plates (Corning) in the presence of 1 μg/ml tetracycline, and allowed to grow for 20-30 hrs. A nearly confluent monolayer resulted. Cells were then loaded with Ca2+ dye: Fura-2/AM or Fluo4/AM was added to the wells to a final concentration of 4 μM or 0.5 μM, respectively, and incubated for 80 min or 60 min, respectively, at room temperature. Supernatant was then removed from the cells by inverting plates with a sharp flick, and 25 μl Hank's Balanced Salt Solution (HBSS; 0.185 g/l D-glucose, 0.9767 g/l MgS04 (anhydrous), 0.4 g/l KCl, 0.06 g/l KH2PO4 (anhydrous), 0.35 g/l NaHCO3, 8.0 g/l NaCl, and 0.04788 g/l Na2HPO4 (anhydrous); pH 7.4) was then added to each well. Following ˜0.5 hour for recovery from loading, cells were assayed using the Hamamatsu FDSS 6000 system, which permitted illumination alternately at 340 nm and 380 nm for Fura-2 experiments, or at 485 nm for Fluo4 experiments. Frames were acquired at a rate of 0.2 Hz. During the assay, the plates were continuously vortexed, with pipette mixing of wells following addition of each reagent. For the screening assay, 26 μl of a diluted compound stock (at 50 μM) was added to each well for 2 minutes following the collection of a short (4 frame) baseline. 13 μl 62 mM high-Ca2+Ringer solution (4.17 ml of normal ringer (with 2 mM Ca2+) plus 5.83 ml of isotonic calcium ringer (105 mM Ca2+; in this ringer all sodium has been replaced with calcium)) was then added to each well, achieving a final concentration of 14 mM Ca2+ and 10 μM test compound. Data was collected for ˜3 minutes following addition of high Ca2+Ringer, where the fluorescent intensity (for Fluo4) and the F340/F380 ratio (for Fura-2) were proportional to the [Ca2+]i Negative controls consisted of HEK293/TREx TRPC5 cells exposed to high Ca2+ solution, but no compound. Positive control conditions consisted of addition of 2-APB, a promiscuous blocker of TRPC5 and other channels, to columns 23 and 24 of the plates, to a final concentration of 200 μM. These controls defined a screening window, and “hits” were defined as those compounds inhibiting the fluorescence response by at least 40%. IC50 values were determined for compounds defined as “hits.” The Fluo4 cell-based fluorescence assay was used to determine the intracellular Ca2+ concentration in the presence of varying drug concentration. Final concentrations of compounds tested were 20 μM, 6.667 μM, 2.222 μM, 0.741 μM, 0.247 μM, 0.082 μM, and 0.027 μM. Compounds were tested in triplicate at all concentrations. Standard software was used to fit IC50 curves.
Additionally or alternatively, efficacy can be represented as % inhibition in the presence (of a given concentration of compound) versus the absence of compound or in comparison to a control compound. For example, efficacy can be represented as % inhibition of ion flux in the presence versus the absence of compound.

[2] = target: T1, TRPC5 channel; test: Whole-cell patch clamp of TRPC5 current; assay type: cell-based; conditions: TRPC5-expressing HEK293 TREx cells, current activated by 80 μM LaCl3 and 1.4 μM free Ca2+ in pipette, IC50 estimated
Source text: Patch clamp experiments permit the detection of currents through the TRPC5 channel in the cell line described above. In normal whole-cell patch clamp recordings, a glass electrode is brought into contact with a single cell and a high-resistance (gigaohm) seal is established with the cell membrane. The membrane is then ruptured to achieve the whole-cell configuration, permitting control of the voltage of the cell membrane and measurement of currents flowing across the membrane using the amplifier attached to the electrode and resulting in the replacement of cytoplasm with the pipette solution. A perfusion system permits control of the extracellular solution, including the addition of blockers and activators of the current. The current can be activated by including 1.4 μM free Ca^2+ in the pipette (intracellular) solution, and 80 μM LaCl3 in the extracellular solution.
TRPC5 cells were induced 20-48 hours, removed from growth plates, and replated at low density (to attain good single-cell physical separation) on glass coverslips for measurement. In some cases, cells were grown in low density overnight on glass coverslips. Patch clamp recordings were made in the whole-cell mode with a holding potential of −40 mV. Every 5 seconds, a voltage ramp was applied from −120 to +100 mV, 400 ms in duration. Currents elicited were quantified at −80 mV and +80 mV. The internal solution consisted of 140 mM cesium aspartate, 10 mM HEDTA, 2 mM CaCl2, 2.27 mM MgCl2 and 10 mM HEPES, pH 7.2, with 1,400 nM calculated free Ca^2+. The external solution consisted of 150 mM NaCl, 4.5 mM KCl, 1 mM MgCl2, 2 mM CaCl2 10 mM HEPES, 10 mM glucose, 1 mM EGTA, pH 7.4. Upon addition of LaCl3, TRPC5 current was induced only in TRPC5-expressing cells and not in parental HEK293 TREx cells. Removal of the LaCl3 stimulus causes most of the current to go away. Potential blockers were tested for ability to block both inward and outward currents in the continued presence of LaCl3.
IC50 of a compound of Formula (I) was estimated by testing the compound at 5 μM and 500 nM. […] IC50 for a compound of Formula (I) between 500 nM and 5 μM was similarly estimated.

T1 sequence (Q9UL62 whole entry): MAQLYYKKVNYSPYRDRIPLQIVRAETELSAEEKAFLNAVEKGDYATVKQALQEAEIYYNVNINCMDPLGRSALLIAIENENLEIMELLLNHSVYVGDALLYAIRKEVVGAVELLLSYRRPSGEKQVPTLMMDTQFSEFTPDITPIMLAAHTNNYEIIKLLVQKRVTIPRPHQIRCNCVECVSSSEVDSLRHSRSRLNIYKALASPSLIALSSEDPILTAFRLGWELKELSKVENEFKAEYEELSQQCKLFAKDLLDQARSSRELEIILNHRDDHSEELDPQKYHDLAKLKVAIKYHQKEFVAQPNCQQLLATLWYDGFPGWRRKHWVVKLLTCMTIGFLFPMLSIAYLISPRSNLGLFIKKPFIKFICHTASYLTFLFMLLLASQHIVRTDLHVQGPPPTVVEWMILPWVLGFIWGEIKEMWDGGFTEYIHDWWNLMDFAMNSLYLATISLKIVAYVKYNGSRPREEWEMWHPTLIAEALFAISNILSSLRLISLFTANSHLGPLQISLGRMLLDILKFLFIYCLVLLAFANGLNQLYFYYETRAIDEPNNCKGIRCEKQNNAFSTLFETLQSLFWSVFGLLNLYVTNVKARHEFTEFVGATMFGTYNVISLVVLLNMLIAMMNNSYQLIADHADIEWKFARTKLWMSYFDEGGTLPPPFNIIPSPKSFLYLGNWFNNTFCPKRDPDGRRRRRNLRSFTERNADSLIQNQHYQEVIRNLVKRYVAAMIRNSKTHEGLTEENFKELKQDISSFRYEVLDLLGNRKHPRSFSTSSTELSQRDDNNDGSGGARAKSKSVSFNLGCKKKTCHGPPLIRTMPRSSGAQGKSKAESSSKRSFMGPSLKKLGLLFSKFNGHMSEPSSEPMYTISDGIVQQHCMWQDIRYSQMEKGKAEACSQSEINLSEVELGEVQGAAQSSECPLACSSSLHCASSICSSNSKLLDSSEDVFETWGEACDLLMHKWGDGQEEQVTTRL

Structure (SMILES)	IC50 [1] [nM]	IC50 [2] [nM]
Cc1c(-c2cncc(Cl)c2)sc2c1c(=O)n(CCCO)c(=O)n2C [Compound 8, 6-(5-chloropyridin-3-yl)-3-(3-hydroxypropyl)-1,5-dimethylthieno[2,3-d]pyrimidine-2,4(1H,3H)-dione]	1700	–
Cc1c(-c2ccccc2Cl)sc2c1c(=O)n(CCCO)c(=O)n2C [Compound 16, 6-(2-chlorophenyl)-3-(3-hydroxypropyl)-1,5-dimethylthieno[2,3-d]pyrimidine-2,4(1H,3H)-dione]	27	–
Cc1c(-c2ccc(F)c(F)c2)sc2c1c(=O)n(CCCO)c(=O)n2C [Compound 15, 6-(3,4-difluorophenyl)-3-(3-hydroxypropyl)-1,5-dimethylthieno[2,3-d]pyrimidine-2,4(1H,3H)-dione]	112	–
Cc1c(-c2ccccc2OC(F)(F)F)sc2c1c(=O)n(CCCO)c(=O)n2C [Compound 13, 3-(3-hydroxypropyl)-1,5-dimethyl-6-(2-(trifluoromethoxy)phenyl)thieno[2,3-d]pyrimidine-2,4(1H,3H)-dione]	< 21	–
CC(C)CC(O)c1c(-c2cccc(OC(F)(F)F)c2)sc2c1c(=O)n(CCCO)c(=O)n2C (stereo not shown) [Compound 22, 5-(1-hydroxy-3-methylbutyl)-3-(3-hydroxypropyl)-1-methyl-6-(3-(trifluoromethoxy)phenyl) thieno[2,3-d]pyrimidine-2,4(1H,3H)-dione]	369	–
Cc1c(-c2ccc(Cl)c(Cl)c2)sc2c1c(=O)n(CCCO)c(=O)n2C [Compound 5, 6-(3,4-dichlorophenyl)-3-(3-hydroxypropyl)-1,5-dimethylthieno[2,3-d]pyrimidine-2,4(1H,3H)-dione]	< 27	–
Cc1c(-c2cccc(OC(F)(F)F)c2)sc2c1c(=O)n(CCCO)c(=O)n2C [Compound 14, 3-(3-hydroxypropyl)-1,5-dimethyl-6-(3-(trifluoromethoxy)phenyl)thieno[2,3-d]pyrimidine-2,4(1H,3H)-dione]	82.2	–
Cc1c(-c2ccc3ccccc3c2)sc2c1c(=O)n(CCCO)c(=O)n2C [Compound 7, 3-(3-hydroxypropyl)-1,5-dimethyl-6-(naphthalen-2-yl)thieno[2,3-d]pyrimidine-2,4(1H,3H)-dione]	34.9	–
Cc1c(-c2cccc(F)c2)sc2c1c(=O)n(CCCO)c(=O)n2C [Compound 18, 6-(3-fluorophenyl)-3-(3-hydroxypropyl)-1,5-dimethylthieno[2,3-d]pyrimidine-2,4(1H,3H)-dione]	27	–
CC(C)CCc1c(-c2cccc(OC(F)(F)F)c2)sc2c1c(=O)n(CCCO)c(=O)n2C [Compound 3, 3-(3-hydroxypropyl)-5-isopentyl-1-methyl-6-(3-(trifluoromethoxy)phenyl)thieno[2,3-d]pyrimidine-2,4(1H,3H)-dione]	340	–
Cc1c(-c2ccc(F)c(C(F)(F)F)c2)sc2c1c(=O)n(CCCO)c(=O)n2C [Compound 6, 6-(4-fluoro-3-(trifluoromethyl)phenyl)-3-(3-hydroxypropyl)-1,5-dimethylthieno[2,3-d]pyrimidine-2,4(1H,3H)-dione]	< 27	–

The next lines start with the values.

IC50 [1] [nM]	IC50 [2] [nM]	Structure (SMILES)
168	15.7	Cc1c(-c2ccc(Cl)cc2)sc2c1c(=O)n(CCCO)c(=O)n2C [Compound 25, 6-(4-chlorophenyl)-3-(3-hydroxypropyl)-1,5-dimethylthieno[2,3-d]pyrimidine-2,4(1H,3H)-dione]
55	–	Cn1c(=O)n(CCCO)c(=O)c2c(C(O)c3ccc(Cl)cc3)c(-c3cccc(Cl)c3)sc21 (stereo not shown) [Compound 4, 6-(3-chlorophenyl)-5-((4-chlorophenyl) (hydroxy)methyl)-3-(3-hydroxypropyl)-1-methylthieno[2,3-d]pyrimidine-2,4(1H,3H)-dione]
4330	–	O=c1c2c(Cc3ccc(Cl)cc3)c(-c3cccc(Cl)c3)oc2n(CCCO)c(=O)n1CCCO [Compound 28, 5-(4-chlorobenzyl)-6-(3-chlorophenyl)-1,3-bis(3-hydroxypropyl)furo[2,3-d]pyrimidine-2,4(1H,3H)-dione]
134	< 1	Cn1c(=O)n(CCCO)c(=O)c2c(Cc3ccc(Cl)cc3)c(-c3cccc(Cl)c3)oc21 [Compound 27, 5-(4-chlorobenzyl)-6-(3-chlorophenyl)-3-(3-hydroxypropyl)-1-methylfuro[2,3-d]pyrimidine-2,4(1H,3H)-dione]
117	< 1	Cn1c(=O)n(CCCO)c(=O)c2c(Cc3ccc(Cl)cc3)c(Oc3cccc(Cl)c3)sc21 [Compound 2, 5-(4-chlorobenzyl)-6-(3-chlorophenoxy)-3-(3-hydroxypropyl)-1-methylthieno[2,3-d]pyrimidine-2,4(1H,3H)-dione]
242	1.84	Cn1c(=O)n(CCCO)c(=O)c2c(Cc3ccc(Cl)cc3)c(-c3ccc(Cl)cc3)sc21 [Compound 24, 5-(4-chlorobenzyl)-6-(4-chlorophenyl)-3-(3-hydroxypropyl)-1-methylthieno[2,3-d]pyrimidine-2,4(1H,3H)-dione]
226	–	Cc1c(-c2cccc(Cl)c2)sc2c1c(=O)n(CCCO)c(=O)n2C [Compound 19, 6-(3-chlorophenyl)-3-(3-hydroxypropyl)-1,5-dimethylthieno[2,3-d]pyrimidine-2,4(1H,3H)-dione]
584	< 1	Cn1c(=O)n(CCCO)c(=O)c2c(Cc3ccc(Cl)cc3)c(Oc3cccc(OC(F)(F)F)c3)sc21 [Compound 1, 5-(4-chlorobenzyl)-3-(3-hydroxypropyl)-1-methyl-6-(3-(trifluoromethoxy)phenoxy)thieno[2,3-d]pyrimidine-2,4(1H,3H)-dione]
27	–	Cn1c(=O)n(CCCO)c(=O)c2c(Cc3ccc(Cl)cc3)c(-c3cccc(Cl)c3)sc21 [Compound 23, 5-(4-chlorobenzyl)-6-(3-chlorophenyl)-3-(3-hydroxypropyl)-1-methylthieno[2,3-d]pyrimidine-2,4(1H,3H)-dione]

From patent US9447114B2, “Thieno- and furo[2,3-d]pyrimidine-2,4[1H,3H]-dione derivatives” (Hydra Biosciences, Inc., priority 2014, dated 2016)
